Holding throughout (assay type): physicochemical
The nature of series [1]: Reaction with metal ion (colour change after FeCl₃). Particulars: for color of the solution BEFORE ADDING FeCl₃: 0.1g in 10 ml of 99.5% ethyl alcohol; for color change of the solution AFTER ADDING FeCl₃: 0.1g in 10 ml of 99.5% ethyl alcohol plus 2 ml of 0.02% FeCl₃. The procedure: Reactivities with trivalent iron ion of the following compounds 1 to 3 as examples of the benzylidene hydantoin derivative and 2-hydroxy-4-methoxybenzophenone (comparison 1) and 2-hydroxy-5-methylphenylbenzotriazol (comparison 2) were tested. (Method)
0.1g of each compounds were dissolved in 10 ml of 99.5% ethyl alcohol and added 2 ml of 0.02% FeCl₃ (99.5% ethyl alcohol solution), respectively. After stirring, color change of the solution were observed.

The next series is described as follows: Solubility.
The nature of series [2]: Ultraviolet ray absorption, 10ppm in ethanol, spectrophotometer. Particulars: 10ppm in ethanol (99.5%), quartz cell 10mm. The procedure:
Ultraviolet ray absorptivities of the compound 1, 3 and comparison (2-hydroxy-4-methoxybenzophenone; UV-A absorbent) were measured according to the following method.
The compound 1, 3 and the comparison compound were dissolved in ethanol (99.5%) so as to the concentration be 10ppm, and absorption were measured by using quartz cell (10mm×10mm) and the spectrophotometer UVIDEC-610 (JASCO CORPORATION).

A short description of series [3]: UV absorption maximum in ethanol (characterisation of the examples). To be noted: for ε: at λmax.

With `CCCCCCCCN1C(=O)NC(=Cc2ccc(OC)cc2)C1=O` [COM. 1, 5-(4-methoxybenzylidene)-3-n-octyl hydantoin, reference compound], the “color of the solution BEFORE ADDING FeCl₃” value in series [1] is recorded as “LIGHT YELLOW”. For the same molecule, the “color change of the solution AFTER ADDING FeCl₃” value (“color change” below) in series [1] was “BROWNING”. For the same molecule, the Solubility came out at 0.2% in the series “Solubility” (CETYL-2-ETHYLHEXANOATE), 0.65% in the series “Solubility” (ETHANOL(99.5%)) and 0.4% in “Solubility” (OLIVE OIL).
`COc1ccc(C(=O)c2ccccc2)c(O)c1` [COMPARISON, 2-hydroxy-4-methoxybenzophenone, reference compound]: the absorption in series [2] (WAVELENGTH 300 nm) came out at 0.39; in series [2] (WAVELENGTH 310 nm) it was 0.35; in series [2] (WAVELENGTH 320 nm), 0.40; in series [2] (WAVELENGTH 330 nm) it was 0.42; in series [2] (WAVELENGTH 340 nm), 0.34; in series [2] (WAVELENGTH 350 nm), 0.20. The absorption in series [2] (WAVELENGTH 360 nm) is recorded as 0.11; in series [2] (WAVELENGTH 370 nm) it was 0.03; in series [2] (WAVELENGTH 380 nm), 0.00.
Take `CCCCC(CC)CN1C(=O)NC(=Cc2ccc(OC)cc2)C1=O` (centres unmarked) [COMPOUND 1, 5-(4-METHOXYBENZYLIDENE)-3-(2-ETHYLHEXYL) HYDANTOIN]: the “λmax (ethanol)” value in series [3] came out at 334 nm. In addition, in series [3], the ε was 32,000. For the same molecule, the absorption worked out at 0.36 in series [2] (WAVELENGTH 300 nm); 0.53 in series [2] (WAVELENGTH 310 nm); 0.74 in series [2] (WAVELENGTH 320 nm); 0.95 in series [2] (WAVELENGTH 330 nm); 0.94 in series [2] (WAVELENGTH 340 nm); 0.80 in series [2] (WAVELENGTH 350 nm). For the same molecule, the absorption in series [2] (WAVELENGTH 360 nm) amounted to 0.40; in series [2] (WAVELENGTH 370 nm), 0.10; in series [2] (WAVELENGTH 380 nm) it was 0.02. The “color of the solution BEFORE ADDING FeCl₃” value in series [1] is “COLORLESS OR LIGHT YELLOW”. Moreover, the “color change” value in series [1] was “NO CHANGE”. In addition, the Solubility came out at 2.1% in the series “Solubility” (CETYL-2-ETHYLHEXANOATE), 1.2% in “Solubility” (ETHANOL(99.5%)) and 3.2% in “Solubility” (OLIVE OIL).
In the case of `CCCCC(CC)COc1ccc(C=C2NC(=O)N(CC(CC)CCCC)C2=O)cc1` (centres unmarked) [COMPOUND 3, 5-[4-(2-ETHYLHEXYLOXY)BENZYLIDENE]-3-(2-ETHYLEXYL) HYDANTOIN], in series [3], the “λmax (ethanol)” value is 336 nm. The ε in series [3] was 32,500. Besides, the absorption in series [2] (WAVELENGTH 300 nm) turned out to be 0.24; in series [2] (WAVELENGTH 310 nm), 0.39; in series [2] (WAVELENGTH 320 nm) it was 0.55; in series [2] (WAVELENGTH 330 nm) it was 0.73; in series [2] (WAVELENGTH 340 nm) it was 0.76; in series [2] (WAVELENGTH 350 nm) it was 0.68. Further, the values for the absorption in series [2] (WAVELENGTH 360 nm), in series [2] (WAVELENGTH 370 nm) and in series [2] (WAVELENGTH 380 nm) were 0.40, 0.14 and 0.03, respectively. Besides, in series [1], the “color of the solution BEFORE ADDING FeCl₃” value is recorded as “COLORLESS OR LIGHT YELLOW”. For the same molecule, the “color change” value in series [1] is listed as “NO CHANGE”. Also, the Solubility in “Solubility” (CETYL-2-ETHYLHEXANOATE) is on record as 4%; in the series “Solubility” (ETHANOL(99.5%)) it was 1.4%; in the series “Solubility” (OLIVE OIL), 7%.
`COc1ccc(C=C2NC(=O)N(CCCCCCCCCCCCCCCC(C)C)C2=O)cc1` [compound 2, 5-(4-METHOXYBENZYLIDENE)-3-[…]]: the “λmax (ethanol)” value in series [3] was 334 nm. Further, in series [3], the ε is given as 31,500. Also, the “color of the solution BEFORE ADDING FeCl₃” value in series [1] is listed as “COLORLESS OR LIGHT YELLOW”. In series [1], the “color change” value is “NO CHANGE”. Besides, the results for the Solubility in “Solubility” (CETYL-2-ETHYLHEXANOATE), in the series “Solubility” (ETHANOL(99.5%)) and in the series “Solubility” (OLIVE OIL) were 14%, 4.0% and 17%, respectively.

Source of the values: patent EP0632029A1, “Benzylidene hydantoin derivative, ultraviolet ray absorbent and external preparation for skin including the same” (SHISEIDO COMPANY LIMITED, priority 1993, dated 1995).
